From patent US10774092B2 (SALK INSTITUTE FOR BIOLOGICAL STUDIES, priority 2014, dated 2020)
Structures can show the parent of a compound that is named as a salt.

What follows are compounds tested against ULK1 (assay: ULK1 inhibition assay (Table 1)). Details: * = tested as a mixture of regioisomers.
Assay type: biochemical

Row | SMILES | IC50
1 | CNC(=O)c1cccc(Oc2nc(Nc3ccc4c(c3)CCC(=O)N4)ncc2Br)c1 [Example 268, 3-((5-bromo-2-((2-oxo-1,2,3,4-tetrahydroquinolin-6-yl)amino)pyrimidin-4-yl)oxy)-N-methylbenzamide] | 200 to 2000 nM
2 | COc1cc(Nc2ncc(Br)c(Oc3ccccc3)n2)cc(OC)c1OC [Example 266, 5-bromo-4-phenoxy-N-(3,4,5-trimethoxyphenyl)pyrimidin-2-amine] | < 200 nM
3 | Oc1ncc(C(F)(F)F)c(NC2CC2)n1 [Example 189, 4-(cyclopropylamino)-5-(trifluoromethyl)pyrimidin-2-ol] | > 2000 nM
4 | CNC(=O)c1c(O)cccc1Oc1nc(Nc2cc(OC)c(OC)c(OC)c2)ncc1Br [Example 257, 2-((5-bromo-2-((3,4,5-trimethoxyphenyl)amino)pyrimidin-4-yl)oxy)-6-hydroxy-N-methylbenzamide] | < 200 nM
5 | O=C1CCc2cc(Nc3ncc(C(F)(F)F)c(OCCNC(=O)OCc4ccccc4)n3)ccc2N1 [Example 261, Benzyl (2-((2-((2-oxo-1,2,3,4-tetrahydroquinolin-6-yl)amino)-5-(trifluoromethyl)pyrimidin-4-yl)oxy)ethyl)carbamate] | > 2000 nM
6 | COc1cc(Nc2ncc(Br)c(Nc3ccccc3)n2)cc(OC)c1OC [Example 293, 5-bromo-N4-phenyl-N2-(3,4,5-trimethoxyphenyl)pyrimidine-2,4-diamine] | < 200 nM
7 | COc1cc(Nc2ncc(Br)c(Oc3ccccc3N)n2)cc(OC)c1OC [Example 254b, 4-(2-aminophenoxy)-5-bromo-N-(3,4,5-trimethoxyphenyl)pyrimidin-2-amine] | < 200 nM
8 | COc1cc(Nc2ncc(Br)c(Nc3ccccc3O)n2)cc(OC)c1OC [Example 317, 2-((5-bromo-2-((3,4,5-trimethoxyphenyl)amino)pyrimidin-4-yl)amino)phenol] | < 200 nM
9 | FC(F)(F)c1cnc(Nc2cccnc2)nc1NC1CC1 [Example 196, N4-cyclopropyl-N2-(pyridin-3-yl)-5-(trifluoromethyl) pyrimidine-2,4-diamine] | > 2000 nM
10 | COc1cc(Nc2ncc(Br)c(Oc3ccccc3-c3nc(C)co3)n2)cc(OC)c1OC [Example 290, 5-bromo-4-(2-(4-methyloxazol-2-yl)phenoxy)-N-(3,4,5-trimethoxyphenyl)pyrimidin-2-amine] | > 2000 nM
11 | COc1cc(Nc2ncc(Br)c(Oc3ccccc3C(=O)N3CCCC3)n2)cc(OC)c1OC [Example 277, (2-((5-bromo-2-((3,4,5-trimethoxyphenyl)amino)pyrimidin-4-yl)oxy)phenyl)(pyrrolidin-1-yl)methanone] | < 200 nM
12 | CC(CCl)Nc1nc(Nc2ccc3c(c2)CCC(=O)N3)ncc1C(F)(F)F (centres unmarked) [Example 183c, 6-((4-((1-chloropropan-2-yl)amino)-5-(trifluoromethyl)pyrimidin-2-yl)amino)-3,4-dihydroquinolin-2(1H)-one] | > 2000 nM
13 | O=C1CCc2cc(Nc3nc(Oc4ccccc4)ncc3C(F)(F)F)ccc2N1 [Example 300b, 6-((2-phenoxy-5-(trifluoromethyl)pyrimidin-4-yl)amino)-3,4-dihydroquinolin-2(1H)-one] | > 2000 nM
14 | FC(F)(F)c1cnc(Nc2cccc3ncccc23)nc1NC1CC1 [Example 278, N4-cyclopropyl-N2-(quinolin-5-yl)-5-(trifluoromethyl) pyrimidine-2,4-diamine] | > 2000 nM
15 | O=C1CCc2cc(Nc3ncc(C(F)(F)F)c(O)n3)ccc2N1 [Example 231b, 6-((4-hydroxy-5-(trifluoromethyl)pyrimidin-2-yl)amino)-3,4-dihydroquinolin-2(1H)-one] | > 2000 nM
16 | N=c1ccon1-c1ncc(C(F)(F)F)c(NC2CC2)n1 [Example 214b, N-cyclopropyl-2-(3-iminoisoxazol-2(3H)-yl)-5-(trifluoromethyl)pyrimidin-4-amine] | > 2000 nM
17 | O=C1CCc2cc(Nc3ncc(C(F)(F)F)c(NC4CN(c5nc(Nc6ccc7c(c6)CCC(=O)N7)ncc5C(F)(F)F)C4)n3)ccc2N1 [Example 198b, 6-((4-(3-((2-((2-oxo-1,2,3,4-tetrahydroquinolin-6-yl)amino)-5-(trifluoromethyl)pyrimidin-4-yl)amino)azetidin-1-yl)-5-(trifluoromethyl)pyrimidin-2-yl)amino)-3,4-dihydroquinolin-2(1H)-one] | > 2000 nM
18 | COc1cc(Nc2ncc(Br)c(Oc3ccccc3C(N)=O)n2)cc(OC)c1OC [Example 249, 2-((5-bromo-2-((3,4,5-trimethoxyphenyl)amino)pyrimidin-4-yl)oxy)benzamide] | < 200 nM
19 | O=C1CCc2cc(Nc3ncc(C(F)(F)F)c(OCCNCCO)n3)ccc2N1 [Example 212b, 6-((4-(2-((2-hydroxyethyl)amino)ethoxy)-5-(trifluoromethyl)pyrimidin-2-yl)amino)-3,4-dihydroquinolin-2(1H)-one] | 200 to 2000 nM
20 | O=C1NC(=O)c2cc(Nc3ncc(C(F)(F)F)c(NC4CC4)n3)ccc21 [Example 314, 5-((4-(cyclopropylamino)-5-(trifluoromethyl)pyrimidin-2-yl)amino)isoindoline-1,3-dione] | < 200 nM
21 | COc1cc(Nc2ncc(Br)c(Oc3ccccc3NC(=O)C3CC3)n2)cc(OC)c1OC [Example 281, N-(2-((5-bromo-2-((3,4,5-trimethoxyphenyl)amino)pyrimidin-4-yl)oxy)phenyl)cyclopropanecarboxamide] | < 200 nM

Row | SMILES | IC50
22 | O=C1CCc2cc(Nc3ncc(C(F)(F)F)c(NC4CNC4)n3)ccc2N1 [Example 198a, 6-((4-(azetidin-3-ylamino)-5-(trifluoromethyl)pyrimidin-2-yl)amino)-3,4-dihydroquinolin-2(1H)-one] | 200 to 2000 nM
23 | c1cc(NC2CC2)nc(Nc2cnc3[nH]ccc3c2)n1 [Example 204, N4-cyclopropyl-N2-(1H-pyrrolo[2,3-b]pyridin-5-yl)pyrimidine-2,4-diamine] | > 2000 nM
24 | O=c1[nH]c2ccc(Nc3ncc(Br)c(Nc4ccc5[nH]c(=O)[nH]c5c4)n3)cc2[nH]1 [Example 233, 5,5′-((5-bromopyrimidine-2,4-diyl)bis(azanediyl))bis(1,3-dihydro-2H-benzoimidazol-2-one)] | < 200 nM
25 | O=C1CCc2cc(Nc3nc(NC4CC4)c4ccccc4n3)ccc2N1 [Example 263, 6-((4-(cyclopropylamino)quinazolin-2-yl)amino)-3,4-dihydroquinolin-2(1H)-one] | > 2000 nM
26 | c1cc(NC2CC2)nc(Nc2ccc3c(c2)OCCO3)n1 [Example 224, N4-cyclopropyl-N2-(2,3-dihydrobenzo[b][1,4]dioxin-6-yl)pyrimidine-2,4-diamine] | > 2000 nM
27 | COCc1ccccc1Oc1nc(Nc2cc(OC)c(OC)c(OC)c2)ncc1Br [Example 274, 5-bromo-4-(2-(methoxymethyl)phenoxy)-N-(3,4,5-trimethoxyphenyl)pyrimidin-2-amine] | < 200 nM
28 | NCCCNc1nc(Nc2ccc3c(c2)CCC(=O)N3)ncc1C(F)(F)F [Example 313, 6-((4-((3-aminopropyl)amino)-5-(trifluoromethyl)pyrimidin-2-yl)amino)-3,4-dihydroquinolin-2(1H)-one.HCl] | < 200 nM
29 | COc1cc(Nc2ncc(Br)c(Oc3ccccc3C(=O)NC3CC3)n2)cc(OC)c1OC [Example 270, 2-((5-bromo-2-((3,4,5-trimethoxyphenyl)amino)pyrimidin-4-yl)oxy)-N-cyclopropylbenzamide] | 200 to 2000 nM
30 | CC(Cl)CNc1nc(Nc2ccc3c(c2)CCC(=O)N3)ncc1C(F)(F)F (centres unmarked) [Example 183b, 6-((4-((2-chloropropyl)amino)-5-(trifluoromethyl)pyrimidin-2-yl)amino)-3,4-dihydroquinolin-2(1H)-one] | < 200 nM
31 | CN(c1ccccc1)c1nc(Nc2ccc3c(c2)CCC(=O)N3)ncc1C(F)(F)F [Example 184a, 6-((4-(methyl(phenyl)amino)-5-(trifluoromethyl)pyrimidin-2-yl)amino)-3,4-dihydroquinolin-2(1H)-one] | 200 to 2000 nM
32 | COc1cc(Nc2ncc(Cl)c(N(C)C(=O)c3ccccc3O)n2)cc(OC)c1OC [Example 234b, N-(5-chloro-2-((3,4,5-trimethoxyphenyl)amino)pyrimidin-4-yl)-2-hydroxy-N-methylbenzamide] | 200 to 2000 nM
33 | FC(F)(F)c1cnc(Nc2cncnc2)nc1NC1CC1 [Example 203, N4-cyclopropyl-N2-(pyrimidin-5-yl)-5-(trifluoromethyl) pyrimidine-2,4-diamine] | < 200 nM
34 | CNC(=O)CCOc1nc(Nc2cc(OC)c(OC)c(OC)c2)ncc1Br [Example 316, 3-((5-bromo-2-((3,4,5-trimethoxyphenyl)amino)pyrimidin-4-yl)oxy)-N-methylpropanamide] | < 200 nM
35 | OC1Nc2ccc(Nc3ncc(C(F)(F)F)c(NC4CC4)n3)cc2O1 (centres unmarked) [Example 208b, 6-((4-(cyclopropylamino)-5-(trifluoromethyl)pyrimidin-2-yl)amino)-2,3-dihydrobenzo[d]oxazol-2-ol] | < 200 nM
36 | O=C1Cc2cc(Nc3ncc(C(F)(F)F)c(NC4CC4)n3)ccc2N1 [Example 240, 5-((4-(cyclopropylamino)-5-(trifluoromethyl)pyrimidin-2-yl)amino)indolin-2-one] | < 200 nM
37 | O=C1CCc2cc(Nc3ncc(C(F)(F)F)c(OC4COC4)n3)ccc2N1 [Example 231a, 6-((4-(oxetan-3-yloxy)-5-(trifluoromethyl)pyrimidin-2-yl)amino)-3,4-dihydroquinolin-2(1H)-one] | < 200 nM
38 | O=c1[nH]c2ccc(Nc3nccc(NC4CC4)n3)cc2[nH]1 [Example 232, 5-((4-(cyclopropylamino)pyrimidin-2-yl)amino)-1,3-dihydro-2H-benzo[d]imidazol-2-one] | > 2000 nM
39 | N#Cc1cnc(NC2CC2)nc1Nc1ccc2c(c1)CCC(=O)N2 [Example 287] | > 2000 nM
40 | CN(C)c1nc(Nc2ccc3c(c2)CCC(=O)N3)ncc1C(F)(F)F [Example 220b, 6-((4-(dimethylamino)-5-(trifluoromethyl)pyrimidin-2-yl)amino)-3,4-dihydroquinolin-2(1H)-one] | < 200 nM
41 | CN(c1ccccc1)c1ncc(C(F)(F)F)c(Nc2ccc3c(c2)CCC(=O)N3)n1 [Example 184b, 6-((2-(methyl(phenyl)amino)-5-(trifluoromethyl)pyrimidin-4-yl)amino)-3,4-dihydroquinolin-2(1H)-one] | < 200 nM
